The numbers were not newly measured in US20020094316A1, “Polypodal chelants for metallopharmaceuticals” (priority 2001, published 2002), which cites them from elsewhere.

The conditions of series [1]: compared with MECAM.

Take `O=C(N[C@H]1COC(=O)[C@@H](NC(=O)c2cccc(O)c2O)COC(=O)[C@@H](NC(=O)c2cccc(O)c2O)COC1=O)c1cccc(O)c1O` [enterobactin]: in series [1], the “stability of Fe^3+ complex relative to MECAM” value is “much more stable”.
With `O=C([O-])CN(CCN(CC(=O)[O-])CC(=O)[O-])CCN(CC(=O)[O-])CC(=O)[O-].[Gd+3]` [Gd(DTPA)^2−], the “Kobs (decomposition)” value (acidic conditions) is listed as 1.2×10^−3 so^−1.
In the case of `O=C([O-])CN1CCN(CC(=O)[O-])CCN(CC(=O)[O-])CCN(CC(=O)[O-])CC1.[Gd+3]` [Gd(DOTA)^−], the half-life (in 0.1 M HCl) is 60.2 h.
